Experimental data from patent publication US6372749B1, “Pyrazolo[1,5-a]pyrimidine derivatives” (Otsuka Pharmaceutical Factory, Inc., priority 1998, dated 2002).

Key:
[1] = system: S.D. rats; assay: Recovery of pain threshold after substance P injection (Randall-Sellitto method); format: in vivo; conditions: male S.D. rats, oral 5% gum arabic suspension 10 ml/kg, substance P 25 ng/0.1 ml s.c. in left hind paw
Experimental: Using 6-week-old male S.D. rats (7 rats in each group), the pain threshold of each rat's left hind paw plantar was measured using an Analgesy-Meter (product of Unicom) in accordance with the Randall-Sellitto method [Randall, L. O. and Sellitto, J. J., Arch. Int. Pharmacodyn., 111, 409 (1957)]. The value thus obtained was termed “pre-value”.
One hour after the measurement of the pre-value, a 5% gum arabic suspension containing the compound of the invention was orally administered to the rats of the test group in an amount of 10 ml/kg, whereas a 5% gum arabic suspension (not containing the compound of the invention) was orally administered to the rats of the control group in an amount of 10 ml/kg.
One hour later, a physiological saline solution containing substance P (25 ng/0.1 ml) was subcutaneously injected into the left hind paw plantar of each rat.
The pain threshold of each rat's left hind paw was measured in the same manner as above at predetermined time intervals from the substance P injection. The measured value was termed “post-value”.
The recovery (%) of the pain threshold was calculated from the post-values and the pre-values of the test group and the control group, by means of the following formula: [formula]

[2] = time of measurement 60 minutes later

| melting point | SMILES | Recovery (%) of the pain threshold (the highest recovery %) [1, 2] | Recovery (%) of the pain threshold (the highest recovery %) ([1]; time of measurement 30 minutes later) |
| --- | --- | --- | --- |
| > 152 °C (dec.) | CCCCc1cc(/C(=C\c2cc(OC)c(O)c(OC)c2)C(=O)O)n2nccc2n1 [Example 109, (E) 2-(5-n-butylpyrazolo[1,5-a]pyrimidin-7-yl)-3-(4-hydroxy-3,5-dimethoxyphenyl)acrylic acid] | 52.1% |  |
|  | CCCCc1cc(/C(=C\c2cc(OC)c(OC)c(OC)c2)C(=O)O)n2nccc2n1 [Example 40, (E) 2-(5-n-butylpyrazolo[1,5-a]pyrimidin-7-yl)-3-(3,4,5-trimethoxyphenyl)acrylic Acid] | 47.2% |  |
|  | CCCCc1cc(/C(=C/c2cc(OC)c(OC)c(OC)c2)SC)n2nccc2n1 [Example 12, (Z)-5-n-butyl-7-[1-methylthio-2-(3,4,5-trimethoxyphenyl)ethenyl]pyrazolo[1,5-a]pyrimidine] | 41.5% |  |
|  | CCCCc1cc(/C=C/c2cc(OC)c(OC)c(OC)c2)n2nccc2n1 [Example 1, (E)-5-n-butyl-7-[2-(3,4,5-trimethoxyphenyl)ethenyl]pyrazolo[1,5-a]pyrimidine] | 47.8% |  |
|  | CCCCc1cc(/C=C/c2ccc(Cl)cc2)n2nccc2n1 [Example 8, (E)-5-n-butyl-7-[2-(4-chlorophenyl)ethenyl]pyrazolo[1,5-a]pyrimidine] |  | 36.2% |
